Data reported in article PMC7714071, “Interaction of amyloid beta with humanin and acetylcholinesterase is modulated by ATP” (FEBS Open Bio, 2020).

Columns and labels:
Aβ40 = conditions: cited from earlier work
Text: Almost all types of cells produce amyloid beta (Aβ), a peptide well recognized for its role in the development and progression of different stages of Alzheimer's disease (AD). The Aβ peptide is ~ 4 kDa and derived from the sequential processing of the higher molecular weight amyloid precursor protein by two membrane‐bound endoproteases, β‐ and γ‐secretase. Different C‐terminal Aβ heterogeneity results from processing by γ‐secretase, where Aβ40 represents the most abundant isoform (~ 90%) as compared to Aβ42 (~ 10%). Self‐assembled Aβ40/42 peptides into amyloid fib ... || Humanin (HN) is a secreted 21‐ to 24‐amino acid mitochondrial‐derived peptide. Certain amino acid residues in HN have been identified to be involved in different functions, including binding to Aβ [55, 56]. […] HN was identified previously as a binding partner of Aβ, likely modulating its aggregation pathways and counteracting its deleterious effects. […] The specific epitopes at the binding interface between HN and Aβ40 were identified, by proteolytic epitope excision and extraction in addition to affinity–mass spectrometric data analysis, to be HN (5–15) and Aβ (17–28). […] Inhibiting the 17–28 region of Aβ reduced aggregation of the neurotoxic amyloid fibrils and related cytotoxicity in SH‐SY5Y, a human neuroblastoma cell ... || (+ 1 further places)

[1] = tested on: HN-Aβ complex (H1299 cell-conditioned media); test: ELISA, HN found in a complex with Aβ in H1299 cell-conditioned media; format: binding, human; conditions: ATP 100 μM, 1 mM; increased levels, compared with A549 media; Fig. 5C,D
Experimental: (§1) Human NSCLC cell lines, A549 (ATCC CCL‐185) and H1299 (ATCC CRL‐5803), were purchased from the American Type Culture Collection (ATCC, Manassas, VA, USA). Cells were seeded as we reported earlier in 5 mL HyClone Dulbecco's modified Eagle's medium/nutrient mixture F‐12 (DMEM/F12) (GE Healthcare Life Sciences, Pittsburgh, PA, USA), supplemented with 10% Fetalgro bovine growth serum (FBS; RMBIO, Missoula, MT, USA), 50 U·mL^−1 penicillin, and […] streptomycin (Invitrogen, Life Technologies, Carlsbad, CA, USA) in 25‐cm^2 tissue culture flasks, and allowed to grow overnight in an incubator at 37 °C, 95% humidity, and 5% CO2. The cells were counted after trypan blue staining, with a hemocytometer.
(§2) ELISAs were carried out as we previously reported. […] TBST was then used to wash the wells 4× before proceeding in one of two ways: (a) biotinylated samples were analyzed by adding 100 µL streptavidin–HRP conjugate in TBST (1 : 2500 dilution) to the samples followed by incubation for 3 h at RT on a shaker, or (b) samples without biotin were analyzed by adding 100 µL TBST containing the primary antibody as per the manufacturer's recommendation, incubating for 3 h at RT on a shaker, followed by washing the wells 4× with TBST. […] The reaction was stopped with 100 µL 2 M H2SO4 after incubating at RT for 0.5–15 min, resulting in a yellow color change, measured by absorbance at 450 nm. […]

[2] = tested on: HN-Aβ complex (A549 cell-conditioned media); test: ELISA, HN found in a complex with Aβ in A549 cell-conditioned media; format: binding, human; conditions: 6E10 or 82E1 on wells, relative to samples without ATP, three experiments in triplicate, Fig. 5A
Experimental: as §1, §2

| Compound | morphology of Aβ40 (Aβ40) | levels of HN bound to Aβ in the presence of ATP [1] | increase in the amount of HN bound to Aβ ([2]; 100 μM ATP) | increase in the amount of HN bound to Aβ ([2]; 1 mM ATP) |
| --- | --- | --- | --- | --- |
| Humanin [HN] | from fibrillary to amorphous | – | – | – |
| Nc1ncnc2c1ncn2[C@@H]1O[C@H](COP(=O)(O)OP(=O)(O)OP(=O)(O)O)[C@@H](O)[C@H]1O [ATP, Adenosine triphosphate] | – | also comparable | ~ 1.85 fold | ~ 2.5 fold |
